# Test results: patent US6017958A, “Method of treating malignant tumors with thyroxine analogues having no significant hormonal activity” (Octamer, Inc., priority 1997, dated 2000)
# Counter-ions that a name gives are not always drawn.
# Assays:
# pADPRT = conditions: parent 6-amino-1,2-benzopyrene; cited from earlier work
# HIV = conditions: parent 6-amino-1,2-benzopyrene; cited from earlier work
# tumor = conditions: parent 6-amino-1,2-benzopyrene; cited from earlier work
# MDA-MB-231 cells = assay: Flow cytometry / M phase block; type: cell-based, human; conditions: colcemid 0.1 μg/ml, 4 hrs
# Protocol: The MDA-MB-231 cell line was obtained from ATCC (Rockville, Md., USA) and cells were cultured in T-75 flasks at 37° C. in Minimum Essential Medium-alpha, supplemented with 10% FCS. In controls, not receiving DIME, 0.1 μg/ml colcemid was added to cultures for 4 hrs prior to the collection of metaphase-blocked cells and preparation of cell spreads. […] Cells (10^7) were isolated from T-75 trypsinization for 5 min with 0.025% trypsin, and sedimented by centrifugation, resuspended and kept in 10 ml of 75 mM KC1 at 37° C. for 10 min, resedimented, and fixed in 10 ml methanol-acetic acid, with four successive changes of methanol-acetic acid. An aliquot of the final cell suspension (100 μl) was dropped on ethanol-cleaned slides and air-dried.
# Cells exposed to different treatments were grown to confluence, trypsinized, and washed with phosphate buffered saline (PBS). For nuclear analysis, cells were fixed in Vindelov Citrate cell buffer: sucrose 250 mM, trisodium citrate. 2H20 40 mM, DMSO 50 ml in 1000 ml solution, pH 7.6. Normal human lymphocytes obtained from blood were used as controls. Each cell sample and control was counted with a hemacytometer and the cell concentration was adjusted to 2×10^6 cells/ml. Two million cells from each cell line in a total volume of 2 ml were washed twice with fresh PBS, treated with 200 μg/ml RNAase at 37° C. for 30 min, and stained with 10 μg/ml propidium iodide for 45 min. Flow cytometric analysis was performed on a FACScan benchtop flow cytometer (Becton-Dickinson, San Jose, Calif., USA) equipped with an air-cooled argon laser tuned to 488 nm. Twenty thousand events were collected as six parameter list mode data for analysis and archival storage. Two light scatter parameters (forward and side), propidium iodide fluorescence measured at 575/26 nm and above 620 nm, and doublet discrimination by fluorescence pulse width and area were acquired at 1024 data channel resolution. Acquisition threshold was set on propidium iodide positive events above channel 100. Gating to exclude small debris, large clumps and cell doublets was done post acquisition.
# [1] = test system: iodine uptake into the thyroid; conditions: rat, in vivo; cited from earlier work
# Rana pipiens tadpoles = conditions: tadpole metamorphosis; cited from earlier work
# [2] = test system: mouse pituitary thyrotropic tumors / non-malignant mouse pituitary adenoma; conditions: cited from earlier work
# Earl's L cells = conditions: Kirshan, 1968; cited from earlier work
structure (smiles),measurement,setting,value
"Nc1ccc2oc(=O)ccc2c1I [5-iodo-6-amino-1,2-benzopyrone]",pADPRT inhibitory potency versus parent compound,pADPRT,significantly augmented
same,antiHIV activity versus parent compound,HIV,significantly augmented
same,antitumor action versus parent compound,tumor,significantly augmented
"CN[C@H]1CCc2cc(OC)c(OC)c(OC)c2-c2ccc(OC)c(=O)cc21 [colcemid, reference compound]","cell cycle block in M phase, comparison of DIME and colcemid",MDA-MB-231 cells,indistinguishable with respect to the cell cycle block in M phase
N[C@@H](Cc1cc(I)c(Oc2cc(I)c(O)c(I)c2)c(I)c1)C(=O)O [thyroxine],suppression of iodine uptake by the thyroid,[1],suppresses uptake of iodine by the thyroid
same,metamorphosis / cell differentiating activity,Rana pipiens tadpoles,induces cell differentiation
same,growth of mouse pituitary tumor,[2],depress growth of non-malignant mouse pituitary thyrotropic tumors
CC[C@]1(O)C[C@@H]2CN(CCc3c([nH]c4ccccc34)[C@@](C(=O)OC)(c3cc4c(cc3OC)N(C)[C@H]3[C@@](O)(C(=O)OC)[C@H](OC(C)=O)[C@]5(CC)C=CCN6CC[C@]43[C@@H]65)C2)C1 [vinblastine sulfate],metaphase block / multinucleation,Earl's L cells,induces metaphase blocked multinucleated cells
